Results as given in patent EP4711366A1, “PYRIMIDO MACROHETEROCYCLIC COMPOUND AS WEE1-YES DUAL-TARGET INHIBITOR AND USE THEREOF” (Mindrank AI Ltd., priority 2023, dated 2024).

How the values were obtained:
[1] = system: A427 human lung cancer cells; experiment: In vivo efficacy study against A427 tumors (subcutaneous tumor-bearing model); set-up: species or system BALB/c nude mice; settings: for Relative tumor inhibition rate (%) Day 28 / Relative tumor volume Day 28: PO
Source text: (§1) A427 human lung cancer cells were subcultured and expanded in an MEM culture medium containing 10% FBS. BALB/c nude mice aged 6-8 weeks were taken and each subcutaneously injected with 5 × 10^6 cells to establish a tumor-bearing model. The tumor volume was monitored, and when the tumor volume reached about 150 mm^3, the animals were randomized into 5 groups according to body weight and tumor volume. The animals were given, by oral gavage, the vehicle or compounds to be tested (ZN-c3 and IE) once daily for a total of 28 days. During the period of administration, the tumor volume and the animal body weight were measured twice a week, and the animals' states were observed daily. At the endpoint, the animals were euthanized with carbon dioxide, and the subcutaneous tumors were isolated and weighed.
(§2) The data calculation formulae are shown below: The tumor volume (TV) was calculated using the formula 1/2×axb^2, where a and b represent the length and width measurements of the tumor, respectively.
(§3) The tumor growth inhibition rate (%TGITV) was calculated using the formula (1 - TVT/TVC) × 100%, where TVc represents the average tumor volume of the negative control group, and TVT represents the average tumor volume of the treatment group.
(§4) The relative tumor volume (RTV) was calculated using the formula Vt/V0, where V0 represents the tumor volume at the time of grouping, and Vt represents the tumor volume at each measurement.

[2] = system: Human colon cancer LoVo cells; experiment: In vivo efficacy study against LoVo tumors (subcutaneous tumor-bearing model); set-up: species or system BALB/c nude mice; settings: for Relative tumor inhibition (%) Day 28 / Relative tumor volume Day 28: PO
Source text: (§5) Human colon cancer LoVo cells were subcultured and expanded in an F12K culture medium containing 10% FBS. BALB/c nude mice aged 6-8 weeks were taken and each subcutaneously injected with 2 × 10^6 cells to establish a tumor-bearing model. The tumor volume was monitored, and when the tumor volume reached about 150 mm^3, the animals were randomized into 5 groups according to body weight and tumor volume. The animals were given, by oral gavage, the vehicle or compounds to be tested (ZN-c3 and IE) once daily for a total of 28 days. During the period of administration, the tumor volume and the animal body weight were measured twice a week, and the animals' states were observed daily. At the endpoint, the animals were euthanized with carbon dioxide, and the subcutaneous tumors were isolated and weighed.
as §2
The tumor growth inhibition rate (%TGITV) was calculated using the formula (1 - TVT/TVC) × 100%, where TVC represents the average tumor volume of the negative control group, and TVT represents the average tumor volume of the treatment group.
as §4

[3] = system: Human ovarian cancer OVCAR-3 cells; experiment: In vivo efficacy study against OVCAR-3 tumors (subcutaneous tumor-bearing model); set-up: species or system BALB/c nude mice; settings: for Relative tumor inhibition (%) Day 28 / Relative tumor volume Day 28: PO
Description: as §5, with “Human ovarian” for “Human colon”, “cancer OVCAR-3” for “cancer LoVo”, “an RPMI-1640” for “an F12K”, “containing 20% FBS and 0.01 mg/mL bovine insulin.” for “containing 10% FBS.”, “with 5” for “with 2”
as §2, §3, §4

A427 cells = experiment: Tumor cell proliferation inhibitory activity assay (CCK-8); assay type: cell-based, Human; settings: for IC50: Homo sapiens, A-427, 72 h compound incubation, CCK-8
Description: Human lung cancer A427 cells are cancer cells reported to be sensitive to wee1 inhibitors. In this assay, the anti-cancer effects of the compounds of the present disclosure were verified by assessing the activity of the test substances in inhibiting A427 cell proliferation.
A427 cells were cultured according to the cell culture instructions, and cells in the logarithmic growth phase were collected, counted, resuspended in a complete culture medium, and inoculated into a 96-well plate at a cell concentration of 100 µL/3000 cells/well. The cells were incubated in an incubator at 37 °C with 100% relative humidity and 5% CO2 for 24 h.
The compounds to be tested were dissolved in DMSO and diluted 4-fold with a culture medium from 10 µM to 10 concentration gradients.
The culture medium waste was pipetted off, and 100 µL of the formulated culture medium of the compound to be tested was added to each well. The cells were incubated in an incubator at 37 °C with 100% relative humidity and 5% CO2 for 72 h.
The plate was taken out, the CCK-8 reagent was added at 10 µL/well, and the plate was incubated in an incubator at 37 °C for 2-4 h.
The cell growth inhibition rates of the drugs were calculated using the following formula: Cell growth inhibition rate% = [(Ac−As)/(Ac−Ab)] × 100% [formula] • As: the OA of the samples (cells + CCK-8 + compounds to be tested) • Ac: the OA of the normal growth cell control (cells + CCK-8) • Ab: the OA of the blank control (culture medium + CCK-8)
IC50 curve fitting was performed using the software Graphpad Prism 6 and the calculation formula XY-analysis/Nonlinear regression(curve fit)/Dose response-Inhibition/log(inhibitor)vs. response-Variable slope(four parameters), and the IC50 values were calculated. Table 1. Data analysis and results for some representative compounds

[4] = system: SW620 human colon cancer cells; experiment: In vivo efficacy study against SW620 tumors (subcutaneous tumor-bearing model); set-up: species or system BALB/c nude mice; settings: for Relative tumor inhibition rate (%) Day 21 / Relative tumor volume Day 21: PO, QD×21
Source text: as §1, with “SW620 human colon” for “A427 human lung”, “SW620 human colon cancer cells” for “A427 human lung cancer cells”, “in an L-15 culture medium” for “in an MEM culture medium”, “injected with 1 × 10^6” for “injected with 5 × 10^6”, “(ZN-c3 and compound IE) once” for “(ZN-c3 and IE) once”, “total of 21 days. During” for “total of 28 days. During”
as §2, §3, §4

Cc1cc(Nc2ncc3c(=O)n4n(c3n2)-c2cccc(n2)[C@](C)(O)CCC=CC4)ccc1OC1CCN(C)CC1 (stereo in doubt) [Compound IE, (R,Z)-12-hydroxy-12-methyl-2-((3-methyl-4-((1-methylpiperidin-4-yl)oxy)phenyl)amino)-7,10,11,12-tetrahydro-5H-13,17-(azeno)pyrimido[4',5':3,4]pyrazolo[1,2-a] [1,2]diazacyclotridecin-5-one]
Relative tumor inhibition rate (%) Day 28 ([1]; 30mg/kg, QD×28): 60.81% | Relative tumor volume Day 28 ([1]; 30mg/kg, QD×28): 2.41 | Relative tumor inhibition rate (%) Day 28 ([1]; 80/60 mg/kg, QD × 28): 99.75% | Relative tumor volume Day 28 ([1]; 80/60 mg/kg, QD × 28): 0.02 | activity in inhibiting tumor growth in the A427 tumor model compared with ZN-c3 ([1]; comparison in words): higher activity than the reference molecule ZN-c3 | Relative tumor inhibition (%) Day 28 ([2]; 20 mg/kg, QD × 28): 60.90% | Relative tumor volume Day 28 ([2]; 20 mg/kg, QD × 28): 2.28 | Relative tumor inhibition (%) Day 28 ([2]; 40 mg/kg, QD × 28): 89.12% | Relative tumor volume Day 28 ([2]; 40 mg/kg, QD × 28): 0.63 | Relative tumor inhibition (%) Day 28 ([2]; 80mg/kg, QD×28): 97.12% | Relative tumor volume Day 28 ([2]; 80mg/kg, QD×28): 0.17 | activity in inhibiting tumor growth in the LoVo tumor model compared with ZN-c3 ([2]; comparison in words): significantly better activity than ZN-c3 | Relative tumor inhibition (%) Day 28 ([3]; 20 mg/kg, QD × 28): 40.51% | Relative tumor volume Day 28 ([3]; 20 mg/kg, QD × 28): 3.16 | Relative tumor inhibition (%) Day 28 ([3]; 40 mg/kg, QD × 28): 81.11% | Relative tumor volume Day 28 ([3]; 40 mg/kg, QD × 28): 0.94 | Relative tumor inhibition (%) Day 28 ([3]; 80/60 mg/kg, QD × 28): 92.69% | Relative tumor volume Day 28 ([3]; 80/60 mg/kg, QD × 28): 0.38 | activity in inhibiting tumor growth in the OVCAR-3 tumor model compared with ZN-c3 ([3]; comparison in words): significantly better activity than ZN-c3 | IC50 (A427 cells): 13 nM | activity in inhibiting cancer cell proliferation compared with reference compound Debio 0123 or ZN-c3 (A427 cells; comparison in words): several times to several dozen times higher | Relative tumor inhibition rate (%) Day 21 ([4]; 30mg/kg): 38.18% | Relative tumor volume Day 21 ([4]; 30mg/kg): 7.31 | Relative tumor inhibition rate (%) Day 21 ([4]; 80mg/kg): 78.38% | Relative tumor volume Day 21 ([4]; 80mg/kg): 2.57 | activity in inhibiting tumor growth in the SW620 tumor model compared with ZN-c3 ([4]; comparison in words): higher activity than the reference molecule ZN-c3

C=CCn1c(=O)c2cnc(Nc3ccc(N4CCN(C)CC4)cc3)nc2n1-c1ccc2c(n1)C(O)(CC)CC2 (stereo not drawn) [ZN-c3, reference compound]
Relative tumor inhibition rate (%) Day 28 ([1]; 30mg/kg, QD×28): 16.17% | Relative tumor volume Day 28 ([1]; 30mg/kg, QD×28): 5.03 | Relative tumor inhibition rate (%) Day 28 ([1]; 80mg/kg, QD×28): 48.93% | Relative tumor volume Day 28 ([1]; 80mg/kg, QD×28): 3.12 | Relative tumor inhibition (%) Day 28 ([2]; 80mg/kg, QD×28): 57.98% | Relative tumor volume Day 28 ([2]; 80mg/kg, QD×28): 2.41 | Relative tumor inhibition (%) Day 28 ([3]; 100mg/kg, QD×28): 61.10% | Relative tumor volume Day 28 ([3]; 100mg/kg, QD×28): 2.01 | IC50 (A427 cells): 129 nM | Relative tumor inhibition rate (%) Day 21 ([4]; 30mg/kg): 28.24% | Relative tumor volume Day 21 ([4]; 30mg/kg): 8.57 | Relative tumor inhibition rate (%) Day 21 ([4]; 80mg/kg): 36.78% | Relative tumor volume Day 21 ([4]; 80mg/kg): 7.94
